Results taken from patent US20230295118A1 (EnhancedBio Inc., priority 2022, published 2023).

Legend:
Type in all cases: cell-based
CDK4 = biological target: T1, CDK4 (Homo sapiens, UniProt P11802); assay: CDK4 degradation (DC50, Dmax)
T1 construct: endogenous in cells

[1] = tested on: mantle cell lymphoma cell (Mino or JeKo-1); assay: Antiproliferative effect, MTS cell viability assay; settings: 72 h, mantle cell lymphoma cell (Mino or JeKo-1), MTS assay, read-out: IC50 (anti-proliferation)
Description: Antiproliferative effect of the exemplary compounds was assessed in B-cell malignancy models.
To assess the effect of the exemplary compounds on cell viability in B-cell malignancy models by degradation of CDK4/6 proteins, Mino cells were treated with varying concentrations of exemplary compounds (0, 0.0001, 0.001, 0.01, 0.1, 1 μM) or positive control (palbociclib and abemaciclib). Under these conditions, cell viability was determined by an MTS assay. Cytotoxicity was assayed by the determination of reduced tetrazolium (formazan) created by metabolically active cells as detected at 490 nanometers (nm) absorbance using a microplate reader (BMG Labtech, Cary, NC, USA).
The exemplary compounds attenuated the viability of Mino cells in a concentration-dependent manner at 72 h post treatment. Results are shown in Table 1 and FIGS. 2-15 for each exemplary compound.

CDK6 = biological target: T2, CDK6 (Homo sapiens, UniProt Q00534); assay: CDK6 degradation (DC50, Dmax)
T2 construct: endogenous in cells
T2 sequence (Q00534 whole entry): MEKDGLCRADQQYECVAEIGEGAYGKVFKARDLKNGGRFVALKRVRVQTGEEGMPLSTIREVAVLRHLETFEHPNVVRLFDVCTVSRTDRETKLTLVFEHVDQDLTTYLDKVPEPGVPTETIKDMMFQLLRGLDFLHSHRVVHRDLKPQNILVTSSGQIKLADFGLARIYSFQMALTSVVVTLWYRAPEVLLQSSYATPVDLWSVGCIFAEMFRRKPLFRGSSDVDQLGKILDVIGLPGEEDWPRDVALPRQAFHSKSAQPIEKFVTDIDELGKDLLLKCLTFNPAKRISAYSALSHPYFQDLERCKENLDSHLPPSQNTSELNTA

T1 sequence (P11802 whole entry): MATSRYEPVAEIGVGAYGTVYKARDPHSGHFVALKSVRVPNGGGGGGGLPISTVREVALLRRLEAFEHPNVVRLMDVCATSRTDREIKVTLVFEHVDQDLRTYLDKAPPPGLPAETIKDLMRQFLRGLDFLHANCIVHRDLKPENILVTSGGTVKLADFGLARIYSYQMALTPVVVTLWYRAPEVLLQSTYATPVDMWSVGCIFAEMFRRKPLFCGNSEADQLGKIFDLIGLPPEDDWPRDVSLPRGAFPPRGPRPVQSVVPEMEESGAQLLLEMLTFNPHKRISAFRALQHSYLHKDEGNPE

SMILES	DC50 (CDK4)	Dmax (CDK4)	IC50 [1]	DC50 (CDK6)	Dmax (CDK6)
CC(=O)c1c(C)c2cnc(Nc3ccc(N4CCN(C(=O)N5CCN(CC6CCN(c7ccc8c(c7)CN(C7CCC(=O)NC7=O)C8=O)CC6)CC5)CC4)cn3)nc2n(C2CCCC2)c1=O (stereo not drawn) [Compound 16, 3-(5-(4-((4-(4-(6-((6-acetyl-8-cyclopentyl-5-methyl-7-oxo-7,8-dihydropyrido[2,3-d]pyrimidin-2-yl)amino)pyridin-3-yl)piperazine-1-carbonyl)piperazin-1-yl)methyl)piperidin-1-yl)-1-oxoisoindolin-2-yl)piperidine-2,6-dione]	> 0.2 µM	> 50%	> 0.2 µM	> 0.2 µM	> 50%
CC(=O)c1c(C)c2cnc(Nc3ccc(N4CCN(C(=O)N5CCC(CN6CCC(c7ccc8c(c7)C(=O)N(C7CCC(=O)NC7=O)C8=O)CC6)CC5)CC4)cn3)nc2n(C2CCCC2)c1=O (stereo not drawn) [Compound 17, 5-(1-((1-(4-(6-((6-acetyl-8-cyclopentyl-5-methyl-7-oxo-7,8-dihydropyrido[2,3-d]pyrimidin-2-yl)amino)pyridin-3-yl)piperazine-1-carbonyl)piperidin-4-yl)methyl)piperidin-4-yl)-2-(2,6-dioxopiperidin-3-yl)isoindoline-1,3-dione]	0.05 to 0.2 µM	> 50%	0.05 to 0.2 µM	0.05 to 0.2 µM	> 50%
CC(=O)c1c(C)c2cnc(Nc3ccc(N4CCN(C(=O)N5CCC(CN6CCC(c7ccc8c(c7)CN(C7CCC(=O)NC7=O)C8=O)CC6)CC5)CC4)cn3)nc2n(C2CCCC2)c1=O (stereo not drawn) [Compound 18, 3-(5-(1-((1-(4-(6-((6-acetyl-8-cyclopentyl-5-methyl-7-oxo-7,8-dihydropyrido[2,3-d]pyrimidin-2-yl)amino)pyridin-3-yl)piperazine-1-carbonyl)piperidin-4-yl)methyl)piperidin-4-yl)-1-oxoisoindolin-2-yl) piperidine-2,6-dione]	> 0.2 µM	> 50%	> 0.2 µM	> 0.2 µM	> 50%

Other lines, results leading:

DC50 (CDK4)	Dmax (CDK4)	IC50 [1]	DC50 (CDK6)	Dmax (CDK6)	SMILES
0.05 to 0.2 µM	> 60%	< 0.05 µM	0.05 to 0.2 µM	> 60%	CC(=O)c1c(C)c2cnc(Nc3ccc(N4CCN(C(=O)N5CCC(CCN6CCN(c7ccc8c(c7)C(=O)N(C7CCC(=O)NC7=O)C8=O)CC6)CC5)CC4)cn3)nc2n(C2CCCC2)c1=O (stereo not drawn) [Compound 19, 5-(4-(2-(1-(4-(6-((6-acetyl-8-cyclopentyl-5-methyl-7-oxo-7,8-dihydropyrido[2,3-d]pyrimidin-2-yl)amino)pyridin-3-yl)piperazine-1-carbonyl)piperidin-4-yl)ethyl)piperazin-1-yl)-2-(2,6-dioxopiperidin-3-yl)isoindoline-1,3-dione]
0.05 to 0.2 µM	> 60%	0.05 to 0.2 µM	0.05 to 0.2 µM	> 60%	CC(=O)c1c(C)c2cnc(Nc3ccc(N4CCN(C(=O)N5CCC(CCN6CCN(c7ccc8c(c7)CN(C7CCC(=O)NC7=O)C8=O)CC6)CC5)CC4)cn3)nc2n(C2CCCC2)c1=O (stereo not drawn) [Compound 20, 3-(5-(4-(2-(1-(4-(6-((6-acetyl-8-cyclopentyl-5-methyl-7-oxo-7,8-dihydropyrido[2,3-d]pyrimidin-2-yl)amino)pyridin-3-yl)piperazine-1-carbonyl)piperidin-4-yl)ethyl)piperazin-1-yl)-1-oxoisoindolin-2-yl)piperidine-2,6-dione]
0.05 to 0.2 µM	> 60%	0.05 to 0.2 µM	0.05 to 0.2 µM	> 60%	CC(=O)c1c(C)c2cnc(Nc3ccc(N4CCN(C(=O)N5CCN(CCN6CCN(c7ccc8c(c7)C(=O)N(C7CCC(=O)NC7=O)C8=O)CC6)CC5)CC4)cn3)nc2n(C2CCCC2)c1=O (stereo not drawn) [Compound 21, 5-(4-(2-(4-(4-(6-((6-acetyl-8-cyclopentyl-5-methyl-7-oxo-7,8-dihydropyrido[2,3-d]pyrimidin-2-yl)amino)pyridin-3-yl)piperazine-1-carbonyl)piperazin-1-yl)ethyl)piperazin-1-yl)-2-(2,6-dioxopiperidin-3-yl)isoindoline-1,3-dione]
